Test results reported in US20020048549A1, “Radioactive transition metal nitride heterocomplex” (priority 1996, published 2002).

Tested on: serotonin receptor
Assay: Regional brain biodistribution of 99mTcN-DESI (Group A vs Group B with unlabeled desipramine)
Type: in vivo, SD rats
Protocol: The rats were divided into two groups, group A and group B. Into each rat in group A was injected 20 μCi of the ^99mTcN-DESI. Into each rat in group B were injected 20 μCi of the ^99mTcN-DESI and 1.0 mg/kg of unlabeled desipramine at the same time.
SD rats weighing about 250 g were put under intraperitoneal anesthesia with a mixture of xylazine (18 mg/kg) and ketamine (15 mg/kg) and given an injection in the jugular vein. Then, the organs (brain, heart, lung, liver, spleen, kidney, muscle, adrenal, and submaxillary gland) were excised from the rats at different intervals of time, washed and then weighed. In addition, blood samples were collected and then weighed. The data on the biodistribution are expressed as the mean±significant difference of the percentage of radioactivity level per gram of the organ weight based on the dose of radioactivity, (% dose/g). The measurement was carried out using groups of 3 rats each.

[1] = Group A (complex alone), 30 min
[2] = Group A (complex alone), 60 min
[3] = Group B (with 1.0 mg/kg unlabeled desipramine), 5 min
[4] = Group B (with 1.0 mg/kg unlabeled desipramine), 30 min
[5] = Group B (with 1.0 mg/kg unlabeled desipramine), 60 min

## COCCC[P+]1(CCCOC)CCN(CCOC)CC[P+](CCCOC)(CCCOC)[99Tc-2]12(#[N])[NH]C(C(=O)N(C)CCCN1c3ccccc3CCc3ccccc31)C[S]2 (stereo not drawn) [^99mTcN-DESI]
Group A (complex alone), 5 min
  Cerebellum % dose/g: 0.064 ± 0.005 % dose/g
  Cortex % dose/g: 0.029 ± 0.004 % dose/g
  Hypothalamus % dose/g: 0.325 ± 0.058 % dose/g
  Medulla % dose/g: 0.057 ± 0.004 % dose/g
  Striatum % dose/g: 0.076 ± 0.025 % dose/g
[1]
  Cerebellum % dose/g: 0.039 ± 0.015 % dose/g
  Cortex % dose/g: 0.021 ± 0.002 % dose/g
  Hypothalamus % dose/g: 0.408 ± 0.085 % dose/g
  Medulla % dose/g: 0.046 ± 0.003 % dose/g
  Striatum % dose/g: 0.054 ± 0.017 % dose/g
[2]
  Cerebellum % dose/g: 0.028 ± 0.012 % dose/g
  Cortex % dose/g: 0.021 ± 0.002 % dose/g
  Hypothalamus % dose/g: 0.364 ± 0.069 % dose/g
  Medulla % dose/g: 0.029 ± 0.006 % dose/g
  Striatum % dose/g: 0.07 ± 0.019 % dose/g
[3]
  Cerebellum % dose/g: 0.048 ± 0.008 % dose/g
  Cortex % dose/g: 0.014 ± 0.004 % dose/g
  Hypottalamus % dose/g: 0.125 ± 0.029 % dose/g
  Medulla % dose/g: 0.038 ± 0.001 % dose/g
  Striatum % dose/g: 0.053 ± 0.001 % dose/g
[4]
  Cerebellum % dose/g: 0.035 ± 0.007 % dose/g
  Cortex % dose/g: 0.009 ± 0.002 % dose/g
  Hypottalamus % dose/g: 0.162 ± 0.106 % dose/g
  Medulla % dose/g: 0.027 ± 0.013 % dose/g
  Striatum % dose/g: 0.023 ± 0.003 % dose/g
[5]
  Cerebellum % dose/g: 0.031 ± 0.011 % dose/g
  Cortex % dose/g: 0.006 ± 0.000 % dose/g
  Hypottalamus % dose/g: 0.152 ± 0.033 % dose/g
  Medulla % dose/g: 0.016 ± 0.002 % dose/g
  Striatum % dose/g: 0.035 ± 0.011 % dose/g
Group A, no unlabeled desipramine
  accumulation in cortex: specifically accumulated
Group B, unlabeled desipramine administered
  accumulation in cortex: very small amount
Suggested from group A vs group B cortex accumulation
  specificity for serotonin receptor: retained specificity for serotonin receptor
